{"source": "patent US20140294849A1", "about": "“COMPOSITIONS AND USES” (GLAXOSMITHKLINE BIOLOGICALS SA, priority 2011, published 2014)", "key": {"Aβ plaques": {"tested_on": "Aβ plaques", "assay": "Aβ total plaque loading, stereological analysis of brain sections", "assay_type": "in vivo, APPSwe/PS1 mice"}, "[1]": {"tested_on": "Lineage-CD11b+ monocytes in peripheral blood", "assay": "Monocyte analysis and counting after adjuvant injection in mice", "assay_type": "in vivo, C57BL/6 mice", "experimental": "(§1) 24-Hours after injection of the TLR adjuvants, peripheral blood was drawn from C57BL/6 mice via cardiac puncture with lithium-heparin as anticoagulant. Red blood cell lysis was performed twice on pooled blood with Ammonium Chloride-based Buffer (Sigma, Steinheim, Germany) and cells were counted with the EasyCount™ System (Immunicon). […] Cells were finally washed three times and fixed for 15 min. with a 2% paraformaldehyde solution in PBS. Fluorescence minus one (FMO) controls were always included in the assays for fluorescent compensation setting. Samples were acquired on a flow cytometer (BD FACSCanto II) and data analyzed with the FACSDiva software (BD Biosciences). Monocytes were identified by their Side/Forward scatter properties and gated as CD3-/CD45R/B220-/Ly-6G-/NK1.1-(Lineage-)/CD11b+ cells. CD11b+ monocyte frequency was reported as a percentage of the total cells excluding debris.\nas §1, with “24 hours” for “24-Hours”, “each immunomodulator,” for “the TLR adjuvants,”, “min” for “min.”, “monocytes” for “monocyte”\nCells were finally washed twice and fixed for 15 min. with a 2% paraformaldehyde solution in PBS. FMOs controls were always included in the assays. Samples were acquired on a flow cytometer (BD FACSCanto II) and data analyzed with the FACSDiva software (BD Biosciences). Monocytes were identified and counted by their Side/Forward scatter properties, excluding debris and gated as CD3-/CD45R/B220-/Ly-6G-/NK1.1-(Lineage-)/CD11 b+ cells."}, "[2]": {"tested_on": "spatial learning and memory", "assay": "T-water maze in APP/PS1 mice", "assay_type": "in vivo, APPSwe/PS1 mice", "settings": "for behaviour as assessed by T water maze testing: Example 21, twelve weekly injections, vs non treated mice; for cognitive functions, T-water maze: Example 22, vs PBS", "experimental": "Five groups of APPSwe/PS1 mice received one a week for a period of 12 weeks the following treatment: • Gr1: APPSwe/PS1+NaCl 0.9% n(=20), i.p. injections • Gr4: APPSwe/PS1+CRX527 (20 μg/mouse, 130 μl, n=10), i.p. injections • Gr5: […] (50 μg/mouse, 130 μl, n=10), i.p. injections • Gr8 APPSwe/PS1+AS15 ( 1/10th of human dose, 50 μl, n=10), i.m. injections • Gr9: APPSwe/PS1+AS01B ( 1/10th of human dose, 50 μl, n=10), i.m. injections\nMice were tested during the “light on” phase of the day. Behavioral experimenter was blinded to the genetic and treatment status of animals. To assess hippocampal-dependent spatial learning and memory, mice were trained in the T-water maze task. In this paradigm, we evaluate the mouse's ability to remember the spatial location of submerged platform. The T-maze apparatus (length of stem, 64 cm; length of arms, 30 cm; width, 12 cm; height of walls, 16 cm) was made of clear fiberglass and filled with water (23±1° C.) at a height of 12 cm. A platform (11×11 cm) was placed at the end of the target arm and was submerged 1 cm below the surface. The acquisition phase allows to evaluate animals for left-right spatial learning. During the first two trials, platforms were placed on each arms of the maze to test the spontaneous turning preference of the mouse. After these two trials, the least chosen arm was reinforced by the escape platform. The mice were placed in the stem of the T-maze and choose to swim either left or right until they found the submerged platform and escape to it, to a maximum of 60 s. After reaching the platform, the mice remained on it for 20 s and then were immediately placed back in the maze. […] Repeated trials were presented on the same day up to a maximum of 48 trials. A rest period of at least 10-15 min intervened between each block of 10 trials. A mouse was considered to have learned the task when it made no errors in a block of five consecutive trials. The reversal learning phase was then conducted 48 h later. During this phase, the same protocol was repeated, except that the mice were trained to find the escape platform on the opposite side to that on which they had learned on acquisition phase. The number of trials to reach the criterion (five of five correct choices made on consecutive trials) was measured as well as the latency to find the escape platform."}, "[3]": {"tested_on": "cytokines and chemokines in sera", "assay_type": "in vivo, C57BL/6 mice", "settings": "for levels of TNF-α and IL-6: i.p.", "experimental": "Mice (n=5) received 50 μl of adjuvant formulations by i.m. injection for the PBS, AS03, AS01B and AS04D. PBS or LPS or MPL were injected using the intraperitoneal route and sera were collected at 2 and 6 h time points. Whole blood was collected by cardiac puncture from mice and centrifuged on a vacutainer blood collection tube containing gel for serum separation. Serum samples were cleared by centrifugation and stored at −80° C. until analysis. Protein levels in the cleared sera samples were measured by cytokine-specific beads (Millipore, USA) using the Luminex™ platform.\nTo determine whether the low inflammatory response observed in the previous in vitro experiments can be reproduced in vivo, we measured several cytokines and chemokines in the sera of C57BL/6 mice 2 and 6 h following a single intraperitoneal injection of either MPL or LPS. […] Noteworthy, IL-1β is not increased in response to MPL in contrast to LPS treatment."}, "[4]": {"tested_on": "human microglial cell line CHME", "assay": "Phagocytosis of beta-amyloid 1-42 peptide by CHME cells", "assay_type": "cell-based", "settings": "Example 18", "experimental": "Phagocytosis of beta-amyloid 1-42 peptide by the human microglial cell line CHME was observed after the addition of TLR2 agonist containing adjuvants Protollin and Pam3CysLip peptide. […] The synthetic peptide sequence of the Pam3Cys Lip peptide is described herein: Pam3Cys—SQ EPAAPAAEAT PAAEAP. Protollin was used at concentration 1 ug per ml based on the LPS content from Shigella flexneri. Pam3Cys lip peptide was used at concentration of 5 ug per ml of the pure tri-palmitoylated peptide.\nAdditionally, cells were imaged using 42 HiLyte 488 Fluo (Anaspec, Inc.) at 2 ug per ml in DMEM complete media (Invitrogen). Lysotracker red staining was performed and slides were mounted and co-stained with DAPI to show the nucleus (blue). […] Lysotracker red reagent was purchased from Invitrogen and used as manufacturer recommendations."}, "[5]": {"tested_on": "CD11b+ peripheral blood monocytes", "assay": "Ex vivo uptake assay of Aβ1-42", "assay_type": "cell-based, C57BL/6 mice", "settings": "Example 19, FIG. 20; QS21 5 μg i.m.", "experimental": "Preparation of cells: Peripheral blood was drawn from C57BL/6 mice via cardiac puncture with lithium-heparin as anticoagulant, 24-hours after injection of the adjuvants used herein. Red blood cell lysis was performed twice on pooled blood with Ammonium Chloride-based Buffer (Sigma, Steinheim, Germany) and cells were counted with the EasyCount™ System (Immunicon). […]\nFACS analysis: cells were harvested after incubation with fluorescent Aβ peptide with Trypsin/EDTA and cold PBS and washed three times. 500,000 cells were incubated in 96-well plate for 10 min. on ice in the presence of Rat anti-Mouse CD16/CD32 (clone 2.4G2—BD Fc Block™) and further stained for 30 min. with a combination of the following directly conjugated antibodies at their pre-determined optimal concentration: PE-Hamster anti-Mouse CD3 (clone 145-2C11), Rat anti-Mouse CD45R/B220 (clone RA3-6B2), Rat anti-Mouse Ly-6G (clone 1A8), Mouse anti-Mouse NK1.1 (clone PK136), APC-conjugated Rat anti-Mouse CD11b (clone M1/70), PE-Cy7-conjugated Hamster anti-Mouse CD11c (clone HL3), (all from BD PharMingen). […]\nSamples were acquired on a flow cytometer (BD FACSCanto II) and data analyzed with the FACSDiva software (BD Biosciences). […]"}}, "note": "Where two headings read alike, the source gives them in different places. No end group written: not given here."}
{"compound": "3-O-desacyl-4′-monophosphoryl lipid A [3D MPL]", "values": [{"measurement": "plaque loading, combined data of Example 21 and 22", "setting": "Aβ plaques; ANOVA-2, P<0.01, intra peritoneal", "value": "statistical significant plaque loading reduction"}, {"measurement": "brain histology of amyloid plaques", "setting": "Aβ plaques; Example 21, FIG. 26, immunofluorescence 6E10", "value": "more compacted plaques with less total area"}, {"measurement": "Amyloid beta plaque number", "setting": "Aβ plaques; Example 21, 50 μg/mouse i.p., once a week for 12 weeks", "value": "statistically significant reduction in Amyloid beta plaque number"}, {"measurement": "Aβ amyloid plaque level in the brain", "setting": "Aβ plaques; Example 22, FIG. 27B, intra peritoneal route", "value": "trend of reducing the Aβ amyloid plaque"}, {"measurement": "number of CD11b+ monocytes compared to the PBS control", "setting": "[1]; Example 9, 5 ug/mouse, i.m.", "value": "about double"}, {"measurement": "monocyte numbers", "setting": "[1]; Example 10, single i.m. injection, at 5 and 25 ug/mouse dose", "value": "stimulate monocyte numbers"}, {"measurement": "T-water tests, combined data of Example 21 and 22", "setting": "[2]; ANOVA-2 tests, FIG. 27C", "value": "statistical significance"}, {"measurement": "behaviour as assessed by T water maze testing", "setting": "[2]", "value": "significant improvements in behaviour"}, {"measurement": "cognitive functions, T-water maze", "setting": "[2]; i.m. 12x weekly, CRX601 2 μg, CRX601 2 ug in AS03, 3D MPL 5 ug, AS01B 1/10 human dose, unpaired t-tests", "value": "significant improvement of their cognitive functions"}, {"measurement": "cognitive functions, T-water maze", "setting": "[2]; intra peritoneal 50 ug per mouse, 12x weekly", "value": "significant improvement of their cognitive functions"}, {"measurement": "levels of TNF-α and IL-6", "setting": "[3]; 2 h post injection", "value": "modest increase"}, {"measurement": "innate cytokine profile", "setting": "[3]; Example 28, 3D MPL i.p., AS01B i.m., data not shown", "value": "attenuated cytokine profile compared to LPS"}, {"measurement": "most of the cytokine and chemokine levels", "setting": "[3]; Example 28, single intraperitoneal injection, 2 and 6 h", "value": "substantially lower than those of LPS-treated animals"}, {"measurement": "levels of TNF-α and IL-6", "setting": "[3]; after 6 h", "value": "essentially abolished"}, {"measurement": "IL-1β", "setting": "[3]; single i.p. injection, in contrast to LPS", "value": "not increased"}]}
{"compound": "CCCCCCCCCCC[C@H](CC(=O)N[C@H]1[C@H](OC[C@H](NC(=O)C[C@@H](CCCCCCCCCCC)OC(=O)CCCCCCCCC)C(=O)O)O[C@H](CO)[C@@H](OP(=O)(O)O)[C@@H]1OC(=O)C[C@@H](CCCCCCCCCCC)OC(=O)CCCCCCCCC)OC(=O)CCCCCCCCC", "note": "[CRX527]", "values": [{"measurement": "behaviour as assessed by T water maze testing", "setting": "[2]", "value": "significant improvements in behaviour"}]}
{"compound": "Pam3Cys—SQ EPAAPAAEAT PAAEAP (Pam3Cys-SQEPAAPAAEATPAAEAP) [Pam3CysLip peptide, TLR2 agonist, tri-palmitoylated peptide]", "values": [{"measurement": "phagocytosis", "setting": "[4]; 5 ug per ml, pre-incubation 18 hrs", "value": "86 % of cells"}, {"measurement": "amyloid phagocytic activity", "setting": "[4]; compared to PBS, Protollin 1 ug per ml, Pam3Cys lip peptide 5 ug per ml", "value": "higher amyloid phagocytic activity"}]}
{"compound": "QS21 [reference compound]", "values": [{"measurement": "activated Ly6C+ monocytes", "setting": "[1]; Example 19, single i.m. injection, 24 hrs", "value": 75, "unit": "%"}, {"measurement": "number of monocytes", "setting": "[1]; Example 19, single i.m. injection, after 24 hrs, QS21 5 μg", "value": "9.1 % of total peripheral white blood cells"}, {"measurement": "Aβ uptake by peripheral blood monocytes", "setting": "[5]", "value": "does not promote Aβ uptake"}]}
